Assay results taken from patent US8765946B2, “Methods of preparing and using quinazoline and quinoline derivatives” (priority 2006, dated 2014).

The molecules below were run on A431 cells (assay: A431 cell growth inhibition assay (MTT assay)). Details: Homo sapiens, A-431, concentration of 3 μM, 72 hours, read-out: Inhibition Percent (%).
Assay type: cell-based
Method: A431 Cell Growth Inhibition Assay (MTT Assay)
A431, an epidermoid carcinoma cell line; The Cell Bank, Committee on Type Culture Collection Chinese Academy of Science, Shanghai.
Mix prepared medium DMEM and F12 in the proportion of 1:1, then add FBS to a final concentration of 10%.
Dissolved the dried compound sample with 100% DMSO to 2 mM. Then diluted the dissolved compound to 20 μM with cell complete growth medium.
Prior to the assay, cultured the A431 to logarithmic phase, and then removed medium from cell monolayers and wash the cells once with sterilized PBS. Aspriated the PBS and added 2 mL trypsin solution to cover the cell growth surface, removed 1 mL trypsin solution after soaking about 1 minute. Transferred the cell-culture plate to CO2 incubator; incubated at 37° C. for 8 minutes to allow cells to dissociate. After the cells detached, added 4 mL complete growth medium containing FBS with pipette to disperse them off and mixed gently to obtain a homogeneous cell suspension. Aspirated some of the cell suspension to a sterilized polypropylene tube, and determined the cell concentration by counting in a hematocytometer chamber under a microscope. Adjusted the cell concentration with growth medium to obtain 2.5×10^4 cells per milliliter.
Added 100 μL adjusted cell suspension to the 96-well cell-culture plate and occasionally mixed the cell suspension during the seeding process. After seeding cells, incubated the plate at 37° C. overnight with 5% CO2 in the CO2 incubator for cell attachment.
After the cell attachment, added 100 μL prepared compound solutions to the corresponding wells (add PBS to the ambient wells of the plate). The final compound concentrations ranged from 10 μM to 1.52 nM. Incubated the plate at 37° C. with 5% CO2 for 72 hours in the CO2 incubator.
After the exposure to the compound, removed the cell culture supernatant. Then added 100 μL 0.5 mg/mL MTT solution which dissolved in the growth medium without FBS. Incubated the plate at 37° C. with 5% CO2 for another 4 hours to allow the MTT reaction to proceed.
After the MTT reaction, discarded the MTT reaction solution. Added 100 μL DMSO to each well, and the plate was agitated on the plate shaker for several minutes to dissolve the formazan. Then, detected the absorbance at 490 nm using microplate reader.
C#Cc1cccc(Nc2c(C#N)cnc3cc(OCCOC)c(NC(=O)C=C4CCNCC4)cc23)c1 [Example 169, N-(3-cyano-4-(3-ethynylphenylamino)-7-(2-methoxyethoxy)quinolin-6-yl)-2-(piperidin-4-ylidene)acetamide] was tested, and the inhibition at 3 µM was 92%. Molecule C#Cc1cccc(Nc2c(C#N)cnc3cc(OCCOC)c(NC(=O)C=C4CCN(C)CC4)cc23)c1 [Example 190, N-(3-cyano-4-(3-ethynylphenylamino)-7-(2-methoxyethoxy)quinolin-6-yl)-2-(1-methylpiperidin-4-ylidene)acetamide] has an inhibition at 3 µM of 91%. In the case of COCCOc1cc2ncc(C#N)c(Nc3ccc(F)c(Cl)c3)c2cc1NC(=O)C=C1CCN(CCOC)CC1 [Example 183, N-(4-(3-chloro-4-fluorophenylamino)-3-cyano-7-(2-methoxyethoxy)quinolin-6-yl)-2-(1-(2-methoxyethyl)piperidin-4-ylidene)acetamide], the inhibition at 3 µM was 90%. For C#Cc1cccc(Nc2c(C#N)cnc3cc(OCCOC)c(NC(=O)C=C4CCN(CC)CC4)cc23)c1 [Example 191, N-(3-cyano-4-(3-ethynylphenylamino)-7-(2-methoxyethoxy)quinolin-6-yl)-2-(1-ethylpiperidin-4-ylidene)acetamide], the inhibition at 3 µM was 93%. With COCCOc1cc2ncc(C#N)c(Nc3cccc(Br)c3)c2cc1NC(=O)C=C1CCN(C)CC1 [Example 194, N-(4-(3-bromophenylamino)-3-cyano-7-(2-methoxyethoxy)quinolin-6-yl)-2-(1-methylpiperidin-4-ylidene)acetamide] the inhibition at 3 µM was 89%. Work on CCN1CCC(=CC(=O)Nc2cc3c(Nc4ccc(F)c(Cl)c4)c(C#N)cnc3cc2OCCOC)CC1 [Example 181, N-(4-(3-chloro-4-fluorophenylamino)-3-cyano-7-(2-methoxyethoxy)quinolin-6-yl)-2-(1-ethylpiperidin-4-ylidene)acetamide] yielded an inhibition at 3 µM of 94%. Molecule C#Cc1cccc(Nc2c(C#N)cnc3cc(OCCOC)c(NC(=O)C=C4CCN(CCOC)CC4)cc23)c1 [Example 193, N-(3-cyano-4-(3-ethynylphenylamino)-7-(2-methoxyethoxy)quinolin-6-yl)-2-(1-(2-methoxyethyl)piperidin-4-ylidene)acetamide] has an inhibition at 3 µM of 90%. CCCN1CCC(=CC(=O)Nc2cc3c(Nc4ccc(F)c(Cl)c4)c(C#N)cnc3cc2OCC)CC1 [Example 179, N-(4-(3-chloro-4-fluorophenylamino)-3-cyano-7-ethoxyquinolin-6-yl)-2-(1-proplpiperidin-4-ylidene)acetamide] gave an inhibition at 3 µM of 90%. Molecule CCOc1cc2ncc(C#N)c(Nc3ccc(F)c(Cl)c3)c2cc1NC(=O)C=C1CCN(CC)CC1 [Example 178, N-(4-(3-chloro-4-fluorophenylamino)-3-cyano-7-ethoxyquinolin-6-yl)-2-(1-ethylpiperidin-4-ylidene)acetamide] has an inhibition at 3 µM of 88%. With COCCOc1cc2ncc(C#N)c(Nc3ccc(F)c(Cl)c3)c2cc1NC(=O)C=C1CCN(C)CC1 [Example 180, N-(4-(3-chloro-4-fluorophenylamino)-3-cyano-7-(2-methoxyethoxy)quinolin-6-yl)-2-(1-methylpiperidin-4-ylidene)acetamide] the inhibition at 3 µM was 92%. Work on C#Cc1cccc(Nc2c(C#N)cnc3cc(OCCOC)c(NC(=O)C=C4CCN(CCC)CC4)cc23)c1 [Example 192, N-(3-cyano-4-(3-ethynylphenylamino)-7-(2-methoxyethoxy)quinolin-6-yl)-2-(1-propylpiperidin-4-ylidene)acetamide] yielded an inhibition at 3 µM of 93%. Molecule CCCN1CCC(=CC(=O)Nc2cc3c(Nc4ccc(F)c(Cl)c4)c(C#N)cnc3cc2OCCOC)CC1 [Example 182, N-(4-(3-chloro-4-fluorophenylamino)-3-cyano-7-(2-methoxyethoxy)quinolin-6-yl)-2-(1-propylpiperidin-4-ylidene)acetamide] has an inhibition at 3 µM of 90%.

The molecules below were run on BT474 cells (assay: BT-474 cell growth inhibition assay (SRB assay)). Details: Homo sapiens, concentration of 3 μM, 72 h, read-out: Inhibition Percent (%).
Assay type: cell-based
Method: BT-474 Cell Growth Inhibition Assay (SRB Assay)
BT-474 human breast cancer cell lines were kindly provided by Dr. Changnian Liu, Pharmaron Beijing Co., Ltd.
BT-474 cells were cultured in 37° C., 5% CO2, saturated humidity until logarithmic phase. Discarded culture medium, washed cells once by PBS. Added 1 ml Trypsin/EDTA solution, stood at 37° C. for 5 min, allowed the cells to detach. Added culture medium, adjusted the cells density to 1×10^5 cells/ml.
Day 0, added 100 μl/well cells suspension to 96-well cell culture plates. Incubated overnight to let the cells attach completely.
Day 1, compounds (2 mM in DMSO as stock solution) was diluted to 20 μM in EMEM. Then a fourfold serial dilution was made. These diluted compounds were made as 10× reaction solutions, and the concentration of DMSO was kept at 1%.
Added 80 μl culture medium and 20 μl 10× compound reaction solution to the testing wells, or vehicle control to the control wells. Co-incubated cells with compounds for another 72 h.
Day 3, fixed cellular protein by the addition of 100 μl/well of 10% TCA (diluting from 50% TCA) at 4° C. for 1 h. Rinsed TCA using plate washer, and washed five times using distilled water. Removed the residual wash solution with a piece of absorbent paper. Added 100 μl/well 0.4% SRB solution, allowed a 15-30 min staining period. Removed the SRB, and washed the culture plates five times using 1% acetic acid. Removed the residual wash solution with a piece of absorbent paper. Air-dried the culture plates, dissolved the protein-bound dye with 100 μl/well of 10 mM Tris base solution. Shook the plates until the dye was dissolved completely.
In the case of C#Cc1cccc(Nc2c(C#N)cnc3cc(OCCOC)c(NC(=O)C=C4CCNCC4)cc23)c1 [Example 169, N-(3-cyano-4-(3-ethynylphenylamino)-7-(2-methoxyethoxy)quinolin-6-yl)-2-(piperidin-4-ylidene)acetamide], the inhibition at 3 µM was 58%. In the case of CCOc1cc2ncc(C#N)c(Nc3ccc(OCc4cccc(F)c4)c(Cl)c3)c2cc1NC(=O)C=C1CCN(CC)CC1 [Example 206, N-(4-(4-(3-fluorobenzyloxy)-3-chlorophenylamino)-3-cyano-7-ethoxyquinolin-6-yl)-2-(1-ethylpiperidin-4-ylidene)acetamide], the inhibition at 3 µM was 80%. For COCCOc1cc2ncc(C#N)c(Nc3ccc(OCc4ccccn4)c(Cl)c3)c2cc1NC(=O)C=C1CCN(C)CC1 [Example 200, N-(4-(3-chloro-4-(pyridin-2-ylmethoxy)phenylamino)-3-cyano-7-(2-methoxyethoxy)quinolin-6-yl)-2-(1-methylpiperidin-4-ylidene)acetamide], the inhibition at 3 µM was 90%. Work on COCCN1CCC(=CC(=O)Nc2cc3c(Nc4ccc(OCc5ccccn5)c(Cl)c4)c(C#N)cnc3cc2OC)CC1 [Example 198, N-(4-(3-chloro-4-(pyridin-2-ylmethoxy)phenylamino)-3-cyano-7-methoxyquinolin-6-yl)-2-(1-(2-methoxyethyl)piperidin-4-ylidene)acetamide] yielded an inhibition at 3 µM of 86%. CCCN1CCC(=CC(=O)Nc2cc3c(Nc4ccc(OCc5ccccn5)c(Cl)c4)c(C#N)cnc3cc2OCCOC)CC1 [Example 202, N-(4-(3-chloro-4-(pyridin-2-ylmethoxy)phenylamino)-3-cyano-7-(2-methoxyethoxy)quinolin-6-yl)-2-(1-propylpiperidin-4-ylidene)acetamide] gave an inhibition at 3 µM of 92%. In the case of COc1cc2ncc(C#N)c(Nc3ccc(OCc4ccccn4)c(Cl)c3)c2cc1NC(=O)C=C1CCN(C)CC1 [Example 197, N-(4-(3-chloro-4-(pyridin-2-ylmethoxy)phenylamino)-3-cyano-7-methoxyquinolin-6-yl)-2-(1-methylpiperidin-4-ylidene)acetamide], the inhibition at 3 µM was 82%. COCCOc1cc2ncc(C#N)c(Nc3ccc(OCc4cccc(F)c4)c(Cl)c3)c2cc1NC(=O)C=C1CCN(CCOC)CC1 [Example 211, N-(4-(4-(3-fluorobenzyloxy)-3-chlorophenylamino)-3-cyano-7-(2-methoxyethoxy)quinolin-6-yl)-2-(1-(2-methoxyethyl)piperidin-4-ylidene)acetamide] gave an inhibition at 3 µM of 81%. Work on COCCOc1cc2ncc(C#N)c(Nc3ccc(OCc4cccc(F)c4)c(Cl)c3)c2cc1NC(=O)C=C1CCN(C)CC1 [Example 208, N-(4-(4-(3-fluorobenzyloxy)-3-chlorophenylamino)-3-cyano-7-(2-methoxyethoxy)quinolin-6-yl)-2-(1-methylpiperidin-4-ylidene)acetamide] yielded an inhibition at 3 µM of 83%. Molecule CCN1CCC(=CC(=O)Nc2cc3c(Nc4ccc(OCc5cccc(F)c5)c(Cl)c4)c(C#N)cnc3cc2OCCOC)CC1 [Example 209, N-(4-(4-(3-fluorobenzyloxy)-3-chlorophenylamino)-3-cyano-7-(2-methoxyethoxy)quinolin-6-yl)-2-(1-ethylpiperidin-4-ylidene)acetamide] has an inhibition at 3 µM of 78%. CCOc1cc2ncc(C#N)c(Nc3ccc(OCc4ccccn4)c(Cl)c3)c2cc1NC(=O)C=C1CCN(CC)CC1 [Example 199, N-(4-(3-chloro-4-(pyridin-2-ylmethoxy)phenylamino)-3-cyano-7-ethoxyquinolin-6-yl)-2-(1-ethylpiperidin-4-ylidene)acetamide] gave an inhibition at 3 µM of 87%. In the case of CCN1CCC(=CC(=O)Nc2cc3c(Nc4ccc(OCc5ccccn5)c(Cl)c4)c(C#N)cnc3cc2OCCOC)CC1 [Example 201, N-(4-(3-chloro-4-(pyridin-2-ylmethoxy)phenylamino)-3-cyano-7-(2-methoxyethoxy)quinolin-6-yl)-2-(1-ethylpiperidin-4-ylidene)acetamide], the inhibition at 3 µM was 89%.
